What all share (assay): Kinase profiling
Assay type in all cases: biochemical

For experiment [1], the target named is T1, EPHB4 (Homo sapiens, UniProt P54760).
T1 construct: purchased ProQinase (Freiburg, Germany)
T1 sequence (P54760 16-987): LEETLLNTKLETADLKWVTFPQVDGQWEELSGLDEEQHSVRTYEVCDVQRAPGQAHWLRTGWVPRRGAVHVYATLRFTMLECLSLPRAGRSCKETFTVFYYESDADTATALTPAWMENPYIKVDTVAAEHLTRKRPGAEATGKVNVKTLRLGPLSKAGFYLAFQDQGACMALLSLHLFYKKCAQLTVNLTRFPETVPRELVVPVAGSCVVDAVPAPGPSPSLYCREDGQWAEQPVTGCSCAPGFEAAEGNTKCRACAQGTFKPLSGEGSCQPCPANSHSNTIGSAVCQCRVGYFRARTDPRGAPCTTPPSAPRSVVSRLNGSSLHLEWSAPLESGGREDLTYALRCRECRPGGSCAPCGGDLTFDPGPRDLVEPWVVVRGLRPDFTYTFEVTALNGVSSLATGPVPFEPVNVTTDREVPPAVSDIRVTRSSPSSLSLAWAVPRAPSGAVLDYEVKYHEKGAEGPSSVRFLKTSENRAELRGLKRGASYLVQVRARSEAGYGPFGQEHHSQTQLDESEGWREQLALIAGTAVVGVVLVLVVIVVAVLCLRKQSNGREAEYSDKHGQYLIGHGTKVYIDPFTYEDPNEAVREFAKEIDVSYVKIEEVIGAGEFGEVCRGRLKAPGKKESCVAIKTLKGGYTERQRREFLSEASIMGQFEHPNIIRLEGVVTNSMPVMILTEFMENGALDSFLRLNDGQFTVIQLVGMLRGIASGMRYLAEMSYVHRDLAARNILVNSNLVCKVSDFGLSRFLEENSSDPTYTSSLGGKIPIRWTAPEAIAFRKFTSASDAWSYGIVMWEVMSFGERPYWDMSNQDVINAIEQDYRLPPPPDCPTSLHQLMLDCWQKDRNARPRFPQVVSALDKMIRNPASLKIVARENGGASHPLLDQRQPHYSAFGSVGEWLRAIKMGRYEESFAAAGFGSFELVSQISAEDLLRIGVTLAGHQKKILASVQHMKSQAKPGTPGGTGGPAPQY
The procedure:
(§1) The analysis was performed by ProQinase (Freiburg, Germany).

Experiment [2] concerns the target T2, PKN3 (Homo sapiens, UniProt Q6P5Z2).
T2 construct: purchased ProQinase (Freiburg, Germany)
The procedure:
as §1

Experiment [3] deals with T3, CDK2/CycD1 (Homo sapiens, UniProt P24941).
T3 construct: purchased ProQinase (Freiburg, Germany)
How it is done: as §1

The target in experiment [4] is T4, CK1gamma2 (Homo sapiens, UniProt P78368).
T4 construct: purchased ProQinase (Freiburg, Germany)
T4 sequence (P78368 whole entry): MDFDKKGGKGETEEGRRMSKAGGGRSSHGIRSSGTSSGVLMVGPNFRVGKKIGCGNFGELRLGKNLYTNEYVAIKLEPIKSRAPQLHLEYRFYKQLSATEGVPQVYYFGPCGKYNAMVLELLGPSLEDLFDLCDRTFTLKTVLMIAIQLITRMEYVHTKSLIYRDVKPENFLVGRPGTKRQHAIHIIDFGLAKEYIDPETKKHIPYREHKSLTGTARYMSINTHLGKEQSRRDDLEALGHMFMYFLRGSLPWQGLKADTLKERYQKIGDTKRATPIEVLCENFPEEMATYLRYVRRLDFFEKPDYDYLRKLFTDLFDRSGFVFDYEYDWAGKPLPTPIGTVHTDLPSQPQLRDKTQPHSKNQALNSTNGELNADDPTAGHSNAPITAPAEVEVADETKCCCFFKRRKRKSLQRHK
How it is done: as §1

Experiment [5] concerns the target T5, CDK4/CycD1 (Homo sapiens, UniProt P11802).
T5 construct: purchased ProQinase (Freiburg, Germany)
How it is done: as §1

In experiment [6] the target is T6, BUB1B (Homo sapiens, UniProt O60566).
T6 construct: purchased ProQinase (Freiburg, Germany)
T6 sequence (O60566 whole entry): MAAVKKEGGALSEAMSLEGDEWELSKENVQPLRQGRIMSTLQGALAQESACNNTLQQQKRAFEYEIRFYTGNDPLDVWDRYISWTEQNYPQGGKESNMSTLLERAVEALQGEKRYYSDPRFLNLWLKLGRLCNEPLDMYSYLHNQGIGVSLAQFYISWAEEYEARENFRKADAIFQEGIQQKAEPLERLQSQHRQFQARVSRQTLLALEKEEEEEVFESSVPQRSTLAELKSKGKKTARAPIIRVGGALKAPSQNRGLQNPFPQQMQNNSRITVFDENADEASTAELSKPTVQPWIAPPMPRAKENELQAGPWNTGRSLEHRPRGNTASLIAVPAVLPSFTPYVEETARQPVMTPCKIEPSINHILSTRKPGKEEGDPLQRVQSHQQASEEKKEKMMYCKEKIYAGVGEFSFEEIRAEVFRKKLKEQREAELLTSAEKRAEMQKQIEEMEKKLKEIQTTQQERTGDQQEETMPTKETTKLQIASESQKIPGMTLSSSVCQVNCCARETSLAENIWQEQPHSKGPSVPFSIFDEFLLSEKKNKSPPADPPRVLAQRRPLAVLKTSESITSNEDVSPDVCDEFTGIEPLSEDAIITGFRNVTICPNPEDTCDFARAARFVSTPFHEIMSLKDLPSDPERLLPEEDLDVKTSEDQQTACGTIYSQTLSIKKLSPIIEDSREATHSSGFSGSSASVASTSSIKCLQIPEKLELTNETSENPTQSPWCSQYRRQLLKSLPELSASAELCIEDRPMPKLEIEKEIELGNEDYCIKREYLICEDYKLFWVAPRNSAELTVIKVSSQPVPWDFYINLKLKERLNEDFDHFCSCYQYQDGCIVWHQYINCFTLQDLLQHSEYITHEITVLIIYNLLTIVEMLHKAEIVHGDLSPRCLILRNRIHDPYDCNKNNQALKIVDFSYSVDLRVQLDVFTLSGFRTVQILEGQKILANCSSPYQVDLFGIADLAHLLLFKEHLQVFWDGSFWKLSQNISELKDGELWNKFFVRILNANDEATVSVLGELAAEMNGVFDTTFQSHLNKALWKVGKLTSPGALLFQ
How it is done:
as §1

The target of experiment [7] is T7, CDC7/DBF4 (Homo sapiens, UniProt O00311).
T7 construct: purchased ProQinase (Freiburg, Germany)
T7 sequence (O00311 whole entry): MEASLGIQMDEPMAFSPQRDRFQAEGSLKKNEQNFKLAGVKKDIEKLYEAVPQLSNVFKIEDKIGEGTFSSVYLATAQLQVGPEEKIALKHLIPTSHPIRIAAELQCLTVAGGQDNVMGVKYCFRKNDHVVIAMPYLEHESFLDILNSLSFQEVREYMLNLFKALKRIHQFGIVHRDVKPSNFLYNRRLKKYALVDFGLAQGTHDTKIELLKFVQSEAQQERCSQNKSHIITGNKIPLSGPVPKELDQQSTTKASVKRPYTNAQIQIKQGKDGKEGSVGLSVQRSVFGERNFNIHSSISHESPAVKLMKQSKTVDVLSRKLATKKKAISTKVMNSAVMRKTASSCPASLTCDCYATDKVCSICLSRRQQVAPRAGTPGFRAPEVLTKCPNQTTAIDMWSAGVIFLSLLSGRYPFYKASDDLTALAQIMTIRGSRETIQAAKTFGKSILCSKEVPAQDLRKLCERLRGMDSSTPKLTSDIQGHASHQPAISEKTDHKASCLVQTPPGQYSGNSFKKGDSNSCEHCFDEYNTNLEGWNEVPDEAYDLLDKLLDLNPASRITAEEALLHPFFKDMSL
T7 sequence (Q9UBU7 whole entry partner): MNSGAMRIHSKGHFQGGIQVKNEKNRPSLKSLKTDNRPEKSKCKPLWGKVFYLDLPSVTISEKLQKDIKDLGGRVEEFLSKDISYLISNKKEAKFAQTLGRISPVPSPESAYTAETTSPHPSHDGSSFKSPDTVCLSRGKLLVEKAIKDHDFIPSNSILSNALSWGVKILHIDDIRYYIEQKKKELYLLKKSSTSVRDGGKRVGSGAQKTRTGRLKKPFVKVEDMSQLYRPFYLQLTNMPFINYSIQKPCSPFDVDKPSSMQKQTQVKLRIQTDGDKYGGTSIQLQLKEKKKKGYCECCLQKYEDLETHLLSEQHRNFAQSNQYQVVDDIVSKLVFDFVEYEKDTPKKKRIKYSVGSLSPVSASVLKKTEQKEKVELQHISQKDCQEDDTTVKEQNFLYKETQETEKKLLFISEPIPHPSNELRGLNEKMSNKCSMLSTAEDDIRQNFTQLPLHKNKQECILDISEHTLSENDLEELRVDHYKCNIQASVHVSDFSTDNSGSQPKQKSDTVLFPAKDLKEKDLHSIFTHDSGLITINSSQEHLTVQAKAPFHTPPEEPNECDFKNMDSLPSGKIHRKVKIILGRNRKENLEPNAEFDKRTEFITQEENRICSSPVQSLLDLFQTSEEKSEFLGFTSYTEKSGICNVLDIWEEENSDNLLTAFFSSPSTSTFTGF
How it is done:
as §1

Experiment [8] has as its target T8, ULK2 (Homo sapiens, UniProt Q8IYT8).
T8 construct: purchased ProQinase (Freiburg, Germany)
T8 sequence (Q8IYT8 1-1036): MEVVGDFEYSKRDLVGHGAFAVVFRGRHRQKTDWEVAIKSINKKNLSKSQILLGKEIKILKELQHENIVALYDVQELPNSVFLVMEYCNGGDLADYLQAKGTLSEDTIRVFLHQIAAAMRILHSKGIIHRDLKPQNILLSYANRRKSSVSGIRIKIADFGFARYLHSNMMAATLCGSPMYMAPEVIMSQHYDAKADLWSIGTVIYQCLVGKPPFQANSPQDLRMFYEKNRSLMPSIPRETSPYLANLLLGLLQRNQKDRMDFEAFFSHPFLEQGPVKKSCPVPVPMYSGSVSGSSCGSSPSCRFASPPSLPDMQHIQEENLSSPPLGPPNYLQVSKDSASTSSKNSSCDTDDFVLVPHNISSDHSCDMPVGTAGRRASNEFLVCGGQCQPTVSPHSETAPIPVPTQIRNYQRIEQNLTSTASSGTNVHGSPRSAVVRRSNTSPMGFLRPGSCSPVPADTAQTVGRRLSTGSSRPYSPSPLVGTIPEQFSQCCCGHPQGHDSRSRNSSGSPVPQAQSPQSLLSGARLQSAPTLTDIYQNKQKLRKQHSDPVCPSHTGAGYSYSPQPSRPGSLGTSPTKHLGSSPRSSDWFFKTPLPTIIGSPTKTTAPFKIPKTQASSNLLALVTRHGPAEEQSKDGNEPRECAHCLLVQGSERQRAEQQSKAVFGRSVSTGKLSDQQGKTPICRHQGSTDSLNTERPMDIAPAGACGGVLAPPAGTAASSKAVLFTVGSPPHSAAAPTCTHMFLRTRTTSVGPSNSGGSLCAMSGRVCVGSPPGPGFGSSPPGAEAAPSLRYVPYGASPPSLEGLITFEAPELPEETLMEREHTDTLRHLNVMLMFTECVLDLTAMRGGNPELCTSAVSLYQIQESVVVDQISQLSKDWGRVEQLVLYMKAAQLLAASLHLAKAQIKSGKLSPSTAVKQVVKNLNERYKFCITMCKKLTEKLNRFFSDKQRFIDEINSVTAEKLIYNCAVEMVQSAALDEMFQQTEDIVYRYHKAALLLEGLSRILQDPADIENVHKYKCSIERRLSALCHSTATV
The procedure:
as §1

The target of experiment [9] is T9, GRK4 (Homo sapiens, UniProt P32298).
T9 construct: purchased ProQinase (Freiburg, Germany)
T9 sequence (P32298 whole entry): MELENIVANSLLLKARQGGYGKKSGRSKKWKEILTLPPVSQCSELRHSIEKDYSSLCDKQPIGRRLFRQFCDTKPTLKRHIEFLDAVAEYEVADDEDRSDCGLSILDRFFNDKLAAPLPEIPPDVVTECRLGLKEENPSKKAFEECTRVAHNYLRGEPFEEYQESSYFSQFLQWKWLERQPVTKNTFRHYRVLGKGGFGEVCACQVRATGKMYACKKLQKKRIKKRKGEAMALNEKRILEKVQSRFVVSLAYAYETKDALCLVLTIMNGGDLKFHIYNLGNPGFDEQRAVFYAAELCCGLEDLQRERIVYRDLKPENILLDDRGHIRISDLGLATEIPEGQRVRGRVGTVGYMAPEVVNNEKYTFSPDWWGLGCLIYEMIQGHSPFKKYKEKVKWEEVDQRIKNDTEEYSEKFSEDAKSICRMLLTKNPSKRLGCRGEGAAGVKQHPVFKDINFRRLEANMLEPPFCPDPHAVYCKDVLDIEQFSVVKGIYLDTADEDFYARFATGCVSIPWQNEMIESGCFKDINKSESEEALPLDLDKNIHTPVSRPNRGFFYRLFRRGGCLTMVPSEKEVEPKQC
How it is done:
as §1

Experiment [10] addresses T10, NEK7 (Homo sapiens, UniProt Q8TDX7).
T10 construct: purchased ProQinase (Freiburg, Germany)
How it is done: as §1

In experiment [11] the target is T11, PKCeta (Homo sapiens, UniProt P24723).
T11 construct: purchased ProQinase (Freiburg, Germany)
How it is done:
as §1

Experiment [12] addresses T12, INSRR (Homo sapiens, UniProt P14616).
T12 construct: purchased ProQinase (Freiburg, Germany)
How it is done: as §1

T10 sequence (Q8TDX7 whole entry): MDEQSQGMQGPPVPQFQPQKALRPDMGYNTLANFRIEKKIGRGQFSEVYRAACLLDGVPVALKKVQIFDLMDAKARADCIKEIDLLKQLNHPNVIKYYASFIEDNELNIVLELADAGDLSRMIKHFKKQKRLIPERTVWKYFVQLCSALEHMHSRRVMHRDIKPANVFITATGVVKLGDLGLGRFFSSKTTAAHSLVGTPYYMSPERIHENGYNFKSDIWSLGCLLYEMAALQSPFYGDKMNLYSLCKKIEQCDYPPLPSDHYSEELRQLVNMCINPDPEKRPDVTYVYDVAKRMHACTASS
T12 sequence (P14616 27-1297): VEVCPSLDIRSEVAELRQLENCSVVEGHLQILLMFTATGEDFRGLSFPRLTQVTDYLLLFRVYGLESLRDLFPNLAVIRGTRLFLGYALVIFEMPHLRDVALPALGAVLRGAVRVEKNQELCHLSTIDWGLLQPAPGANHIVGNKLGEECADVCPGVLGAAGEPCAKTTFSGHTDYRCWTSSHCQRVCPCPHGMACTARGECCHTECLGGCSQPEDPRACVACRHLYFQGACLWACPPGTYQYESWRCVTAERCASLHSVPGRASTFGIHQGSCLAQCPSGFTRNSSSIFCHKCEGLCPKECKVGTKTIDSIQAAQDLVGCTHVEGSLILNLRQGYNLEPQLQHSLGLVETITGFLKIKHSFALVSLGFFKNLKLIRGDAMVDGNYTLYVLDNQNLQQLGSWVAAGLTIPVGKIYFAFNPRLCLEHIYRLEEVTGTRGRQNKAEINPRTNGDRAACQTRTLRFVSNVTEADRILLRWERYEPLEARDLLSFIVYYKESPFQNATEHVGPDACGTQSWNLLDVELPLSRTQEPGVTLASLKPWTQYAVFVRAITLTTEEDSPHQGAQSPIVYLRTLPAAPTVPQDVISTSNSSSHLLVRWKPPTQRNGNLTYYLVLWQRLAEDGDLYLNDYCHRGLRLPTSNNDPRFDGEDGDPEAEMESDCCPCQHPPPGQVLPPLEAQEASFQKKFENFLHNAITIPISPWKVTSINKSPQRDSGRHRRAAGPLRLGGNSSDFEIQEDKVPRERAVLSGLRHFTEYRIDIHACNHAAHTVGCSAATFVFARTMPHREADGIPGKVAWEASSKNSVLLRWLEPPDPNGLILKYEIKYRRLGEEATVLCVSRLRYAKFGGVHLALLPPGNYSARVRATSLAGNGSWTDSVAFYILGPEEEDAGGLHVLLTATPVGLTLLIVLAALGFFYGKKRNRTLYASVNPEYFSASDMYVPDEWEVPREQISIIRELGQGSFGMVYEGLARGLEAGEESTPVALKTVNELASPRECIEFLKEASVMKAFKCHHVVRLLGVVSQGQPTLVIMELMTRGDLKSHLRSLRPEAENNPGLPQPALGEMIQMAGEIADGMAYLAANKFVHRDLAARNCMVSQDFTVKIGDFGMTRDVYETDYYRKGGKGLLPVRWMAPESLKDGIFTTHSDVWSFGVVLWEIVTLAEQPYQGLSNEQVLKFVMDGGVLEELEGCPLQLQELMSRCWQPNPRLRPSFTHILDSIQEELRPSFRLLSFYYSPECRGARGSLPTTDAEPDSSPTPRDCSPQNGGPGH

`O=C(Cc1ccccc1)Nc1ccc(F)c(Nc2ccc3c(c2)CCCCC3=O)c1` [Compound 100]: the Residual activity in experiment [1] (1.0E-05 M) was 74 % of control; in experiment [1] (1.0E-06 M) it was 99 % of control; in experiment [2] (1.0E-05 M) it was 101 % of control; in [2] (1.0E-06 M), 104 % of control; in [3] (1.0E-05 M) it was 119 % of control; in experiment [3] (1.0E-06 M) it was 102 % of control. For the same molecule, the Residual activity is given as 114 % of control in [4] (1.0E-05 M); 104 % of control in [4] (1.0E-06 M); 94 % of control in experiment [5] (1.0E-05 M); 104 % of control in experiment [5] (1.0E-06 M); 96 % of control in experiment [6] (1.0E-05 M); 108 % of control in experiment [6] (1.0E-06 M). Further, the Residual activity in experiment [7] (1.0E-05 M) is 93 % of control; in experiment [7] (1.0E-06 M), 98 % of control; in experiment [8] (1.0E-05 M) it was 103 % of control; in experiment [8] (1.0E-06 M), 113 % of control; in [9] (1.0E-05 M) it was 86 % of control; in experiment [9] (1.0E-06 M), 116 % of control. The Residual activity in experiment [10] (1.0E-05 M) is on record as 118 % of control; in experiment [10] (1.0E-06 M), 109 % of control; in [11] (1.0E-05 M) it was 115 % of control; in [11] (1.0E-06 M), 116 % of control; in [12] (1.0E-05 M) it was 90 % of control; in experiment [12] (1.0E-06 M), 92 % of control.

For `O=C(Nc1ccc(F)c(Nc2ccc3c(c2)CCCCC3=O)c1)c1cccc(F)c1` [Compound 109], the Residual activity in experiment [1] (1.0E-05 M) is listed as 82 % of control; in experiment [1] (1.0E-06 M) it was 100 % of control; in [2] (1.0E-05 M), 92 % of control; in experiment [2] (1.0E-06 M) it was 91 % of control; in [3] (1.0E-05 M) it was 87 % of control; in experiment [3] (1.0E-06 M), 106 % of control. In addition, the Residual activity was 70 % of control in [4] (1.0E-05 M); 84 % of control in [4] (1.0E-06 M); 108 % of control in [5] (1.0E-05 M); 93 % of control in experiment [5] (1.0E-06 M); 106 % of control in experiment [6] (1.0E-05 M); 104 % of control in experiment [6] (1.0E-06 M). Moreover, the Residual activity is reported as 91 % of control in experiment [7] (1.0E-05 M); 96 % of control in [7] (1.0E-06 M); 113 % of control in [8] (1.0E-05 M); 99 % of control in [8] (1.0E-06 M); 130 % of control in experiment [9] (1.0E-05 M); 103 % of control in experiment [9] (1.0E-06 M). The Residual activity in experiment [10] (1.0E-05 M) is listed as 121 % of control; in [10] (1.0E-06 M), 108 % of control; in [11] (1.0E-05 M), 110 % of control; in experiment [11] (1.0E-06 M), 116 % of control; in experiment [12] (1.0E-05 M), 83 % of control; in experiment [12] (1.0E-06 M), 92 % of control.

The values above are taken from publication PMC9030254, “Target Hopping from Protein Kinases to PXR: Identification of Small-Molecule Protein Kinase Inhibitors as Selective Modulators of Pregnane X Receptor from TüKIC Library” (Cells, 2022).
